Earlier results, collected in patent US6509030B2, “Cultured fish carotenoid and polyphenol added feed for improving fish body color tone and fish meat brilliance” (Toshiyuki Sakiura, priority 2000, dated 2003).

Compound: CC1=C(/C=C/C(C)=C/C=C/C(C)=C/C=C/C=C(C)/C=C/C=C(C)/C=C/C2=C(C)C(=O)[C@@H](O)CC2(C)C)C(C)(C)C[C@H](O)C1=O [Asthaxanthine, asthaxanthine]
- chemical stability, acidic (acidic): very unstable
- chemical stability, basic (basic): Unstable
- chemical stability, neutral (neutral): Unstable
